For 88 compounds, melting point results are on record in a melting point compilation (Tetko et al.; mined from patent text by program, amines drawn as free bases though some values may be those of a salt).

By melting point is commonly meant the temperature, or range, at which the solid turns liquid. Take `O=C(C=Cc1c(-c2ccccc2)nn2ccccc12)N1CCCC[C@@H]1CCO`: the melting point was 145 to 146 °C.

As for `CC(=O)OC1CC2CCC3C(CCC4(C)C(O)C(N5CCCCC5)CC34)C2(C)CC1N1CCCCC1` (stereo not drawn), the melting point is 183 °C. In turn, `COc1cc2c(c(OC(C)=O)c1)C1CCC3(C)C(=O)C(O)CC3C1CC2` (stereo not drawn) gave a melting point of 228 to 231 °C. For `O=C(O)Cc1cc(Br)c2c(c1)CCC(C(F)(F)F)N2` (stereo not drawn), the melting point was 111 to 112 °C. To `CC1(C)OC(=O)Nc2ccc(-c3cc(C#N)ccc3F)cc21` belongs 229 to 230 °C. As for `COc1cccc2c(=O)cc(C3CC3C(=O)O)oc12` (stereo not drawn), the figure is 193 to 196 °C. With `CN1C(=O)CC(Sc2cc(C(C)(C)C)c(O)c(C(C)(C)C)c2)C1=O` (stereo not drawn), the melting point stood at 132 °C. As for `BrCCCCCCOc1ccc(C2=NCCO2)cc1`, the figure is 79 to 81 °C; as for `Cc1cc(-c2c(-c3ccc(S(C)(=O)=O)cc3)cnn(-c3ccc(F)cc3)c2=O)ccc1F`, 168 to 170 °C; as for `NNP(=S)(Oc1ccccc1)Oc1ccccc1`, 59 to 61 °C.

Take `NC(Cc1cnc2ccccc2c1)C(=O)O` (stereo not drawn): the melting point was 241 to 243 °C.

Compound `CN1CC(c2ccc(Cl)cc2)C(=O)C(c2cccc(Cl)c2)C1` (stereo not drawn) yielded a melting point of 126 °C. `Cc1noc(NS(=O)(=O)c2ccc(Cl)cc2)c1Br` had a melting point of 145 to 150 °C. As for `CN1CCC(C(=O)Nc2cccc(-c3ccnc4c(C(=O)c5cccs5)cnn34)c2)CC1`, the figure is 236 °C; as for `Cn1cnnc1SCC(=O)C12CC3CC(CC(C3)C1)C2`, 134 to 136 °C; as for `CC(C)c1nn(-c2c(Cl)cc(C(F)(F)F)cc2Cl)c(Cl)c1-c1nc(C#N)c(C#N)[nH]1`, 96 to 99 °C. To `O=C(Nc1ccc(CCc2nnn[nH]2)cc1)C(F)(F)C(F)(F)C(F)(F)F` belongs 161 to 162 °C. As for `CCNC(=O)c1c([Si](C)(C)C)ccc(CF)c1Cl`, the figure is 104 to 105 °C. For the compound `COc1ccc(OC)c(C2=Nc3ccc(N4CCCC4)cc3C(=O)C2)c1`, the melting point was 272 to 274 °C. Compound `CCCN(C1CCC1)[C@H]1COc2c(F)ccc(C(N)=O)c2C1` came in with a melting point of 107 to 109 °C.

In the case of `O=C1CCN(Cc2cccnc2)CC1C(c1ccccc1)c1ccccc1` (stereo not drawn), the melting point was in the range of 121 to 122 °C.

`N#Cc1ccc(N(Cc2ccc(OS(N)(=O)=O)cc2)n2cnnc2)cc1-c1ccoc1` yielded a melting point of 195 to 196 °C. `COC(=O)c1c(Cc2ccc(C(=O)NC3CCC(O)CC3)cc2)c(=O)c2ccc(Cl)cc2n1-c1ccccc1` (stereo not drawn) yielded a melting point of 151 to 152 °C. As for `CN(c1ccccc1)c1nc(Cl)nc(Cl)n1`, the figure is 132 °C; as for `CC(C)(C)OC(=O)N1CCC(OCc2ccccc2)C1CC(O)Cn1cnc2ccncc2c1=O` (stereo not drawn), 221 °C; as for `CC(C)(C)C1CSC2(CCC(C)(C(Cl)Cl)CC2)SC1` (stereo not drawn), 163 °C. As for `O=C(CCBr)N1CC(c2ccccc2)c2ccccc21` (stereo not drawn), the figure is 98 to 99 °C; as for `COc1cc(Nc2ncc(-c3cccc([N+](=O)[O-])c3)o2)ccc1-c1cnco1`, 279 to 281 °C. `COc1ccc(-c2n[nH]c3c2c(=O)n(-c2ccccc2)c2ncccc32)cc1` displayed a melting point of over 300 °C. In turn, `COc1ccc(C2(O)c3ccccc3C(=O)N2CCc2cccc(OC)c2)cc1` (stereo not drawn) came in with a melting point of 119 °C.

`Cc1nc(NC(=O)c2nnn(Cc3ccc(Cl)c(Cl)c3)c2C)sc1C(=O)O` had a melting point of 263 °C.

Regarding `O=C(CC1CCOCC1)N[C@H]1CC[C@H](CCN2CCC(c3cccc4c3CCO4)CC2)CC1`, the melting point was found to be 191 °C.

Turning to `CCOC(=O)c1ncn2c1[C@@H]1CCN1C(=O)c1c-2ccc(F)c1Cl`, the melting point lay in the range of 161 to 163 °C. As for `CC(O)CNC(=O)NC(=O)C(CC1CCCC1)c1ccc(Cl)c(Cl)c1` (stereo not drawn), the figure is 117 to 120 °C; as for `COc1cc(OC)c2c(=O)[nH]c(-c3cc(C)c(OCCO)c(C)c3)cc2n1`, 225 °C. `COC(=O)C(CC(C)C)NC(=O)C(C)NC(=O)OCc1ccccc1` (stereo not drawn): the melting point lay within 65 to 68 °C.

Turning to `O=C1CCCCC1C(C[N+](=O)[O-])c1ccc(F)cc1` (racemic), the melting point is 84 to 85 °C. Regarding `COC(=O)Cc1c(C)n(Cc2ccccc2OC)c2ccc(OC)cc12`, the melting point lay in the range of 98 to 100 °C.

Consider `COC(=O)C1=C(C)NC(c2ccccc2)=C(C(=O)O)C1c1ccc([N+](=O)[O-])cc1` (stereo not drawn), for which the melting point is 190 to 191 °C. Regarding `COc1ccc(-c2c3c(cc4ccc5c(c24)OCO5)C(=O)NC3)cc1`, the melting point was 266 to 269 °C. `CC(C)(C)c1cc(C(=O)OCCC(=O)Oc2ccc(Cl)c(N)c2)cc(C(C)(C)C)c1O` returned a melting point of 122 to 124 °C. As to `O=S(=O)(CCCCl)Nc1ccc(N2CCN(c3ccc(OCC(O)(Cn4cncn4)c4ccc(Cl)cc4Cl)cc3)CC2)cc1` (stereo not drawn), the melting point fell in the range of 80 to 81 °C.

In turn, `CCOC(=O)Cc1cccc(C(=O)c2ccccc2)c1N` had a melting point of 77 to 78 °C. To `O=C(NCC(C(O)c1ccc([N+](=O)[O-])cc1)N1CCC(Cc2ccccc2)CC1)c1ccccc1` (stereo not drawn) belongs 143 to 147 °C.

In turn, `COc1cccc(-c2ccc3ccc(NC(=O)c4cccc(Br)c4)nc3n2)c1` registered a melting point of 104 °C.

`NC1=CC(=O)CC(c2cccc(Cl)c2Cl)C1` (stereo not drawn): the melting point was 209 to 210 °C. For the compound `O=c1oc(-c2ccccc2)cc(O)c1Cc1cccnc1SCc1ccccc1`, the melting point fell in the range of 103 to 106 °C.

`O=C(C=C1CCCN1)c1cccs1` came in with a melting point of 149 to 150 °C. As for `CC(C)(COc1ccc(Cl)cc1)C(=O)C(Oc1ccc(Cl)cc1)n1cncn1` (stereo not drawn), the figure is 206 to 208 °C.

Consider `CCC(Oc1cc(C)c(Cl)c(C)c1)C(=O)NCc1cccs1` (stereo not drawn), for which the melting point was 105 to 107 °C. `COc1nc(OC)c(C=CC(C)=O)c(OC)n1` yielded a melting point of 98 to 99 °C. As for `N#Cc1ccc(S(=O)(=O)c2ccc(S(N)(=O)=O)s2)c(F)c1`, the melting point is 200 to 202 °C. As for `COC1(C)OC(=O)c2c(O)cccc21` (stereo not drawn), the figure is 101 to 104 °C; as for `COC1=C(OC)C(=O)c2c(N)cccc2C1=O`, 116 to 117 °C; as for `CCCOC(=O)C1=C(C)NC(C=O)=C(C(=O)OC)C1c1ccccc1C#N` (stereo not drawn), 138 to 141 °C.

With `CC(Cc1cccc(C(F)(F)F)c1)N(CC(=O)O)Cc1ccccc1` (stereo not drawn), the melting point is 80 °C. In turn, `CCOC(=O)CCn1c(C(=O)NC(N)=S)cc2ccccc21` returned a melting point of 160 to 162 °C. To `CC1(C)OC[C@H](CCOc2ccc(-c3nc4c5ccccc5c5ccccc5c4[nH]3)cc2)O1` belongs 196 to 198 °C; to `Nc1ccc2c(c1)C(=Cc1cccs1)c1ccccc1-2`, 143 °C; to `C[C@H](NC(=O)OC(C)(C)C)C(=O)Oc1c[nH]c2ccccc12`, 158 °C.

The compound `CC(C)(C)SN1C(=O)NC(=O)C1=O` showed a melting point of 150 to 152 °C. To `CCOC(=O)C1=C(N=CN(C)C)NC(C)=C(C(=O)OC)C1c1ccccc1Cl` (stereo not drawn) belongs 137 °C; to `O=C(NCCN1CCC(n2c(=O)[nH]c3ccccc32)CC1)c1ccco1`, 229 °C. To `Cc1cccc(N2CC(C)C(N)=N2)n1` (stereo not drawn) belongs 181 to 185 °C; to `COc1ccc2c(c1)CCC(=C(O)C(F)F)C2=O`, 52 to 54 °C.

On to `CC(C)c1cn2ccccc2c1S(=O)(=O)c1ccc(O)cc1`, for which the melting point is 179 to 180 °C.

`CC(C)(C)NC(=O)C1CC(C)(C)NC(C)(C)C1=NO` (stereo not drawn) displayed a melting point of 136 to 139 °C. Regarding `O=c1nc(NCc2ccc(Cl)cc2)n2c3c1cnn3C(c1cccc(C(F)(F)F)c1)=CC2`, the melting point lay in the range of 281 to 282 °C. As for `Fc1ccc(Nc2ncnc3cnc(N4CCC(N5CCCC5)CC4)nc23)cc1Cl`, the figure is 202 to 204 °C; as for `COC(=O)c1cc(F)c([N+](=O)[O-])cc1NC(C)=O`, 124 to 126 °C. In turn, `O=C1c2c(Br)ccc(Br)c2C(=O)N1CC(F)(F)C(F)(F)C(F)(F)F` returned a melting point of 165 °C. `COC(=O)c1cc(C(=O)OC)cc(N(C)C)c1` gave a melting point of 118 to 121 °C. For the compound `C#CCOc1ccc(C=O)cc1OC`, the melting point worked out at 95 °C. `Cc1c(C)c2c(c(C)c1O)CCC(COc1ccc(CC3SC(=O)NC3=O)cc1)O2` (stereo not drawn) had a melting point of 158 to 159 °C. To `COc1coc2cc(NS(C)(=O)=O)c(Oc3ccccc3)cc2c1=O` belongs 164 to 166 °C. As for `Cc1ccc2oc(=O)c(NC(=O)Nc3ccc(F)cc3F)c(-c3ccccc3C)c2c1`, the figure is 213 to 214 °C; as for `CC(C)c1ncc(CN2C(=O)C3(COc4cc5c(cc43)OCO5)c3cccc(C(F)(F)F)c32)s1` (stereo not drawn), 101 to 103 °C; as for `CCN(CC)C(=O)c1ccc(C(=C2CCNCC2)c2cccc(OC)c2)cc1`, over 90 °C. On to `CC1COC2(CCN(C(=O)C(Cl)Cl)CC2)O1` (stereo not drawn), for which the melting point is 115 °C.

For `O=C(Nc1cccc2c1C(=O)c1c-2n[nH]c1-c1ccc(C(=O)N2CCN(CCO)CC2)s1)NN1CCOCC1`, the melting point lay in the range of 186 to 187 °C.

As to `Brc1cccc(C2Cc3cnc(Nc4ccc(CCN5CCN(c6ccccc6)CC5)cc4)nc3-c3ccccc32)c1` (stereo not drawn), the melting point was 113 to 115 °C.

The compound `CCC1(CCCCN2CCc3sccc3C2)C(=O)Nc2ccc(Br)cc21` (stereo not drawn) showed a melting point of 149 to 151 °C. As for `O=C(O)c1ccc(OCc2ccc(Cl)cc2)cc1OCc1ccccc1`, the figure is 150 to 152 °C; as for `CNC(=O)c1ccc(Nc2nc(Nc3cc4c(cc3OC)CCN(CC(=O)N(C)C)CC4)ncc2Cl)c(OC)c1`, 138 to 147 °C. Turning to `CC1=C(C(=O)O)[C@H](c2cccc([N+](=O)[O-])c2)C(C(=O)OCOC(=O)C(C)(C)C)=C(C)N1`, the melting point was in the range of 146 to 148 °C. As for `NC(=O)c1ccnc(-c2cccc3cc(Cc4cccc(C(F)(F)F)c4)sc23)c1`, the figure is 177 to 178 °C; as for `NC(=O)CN1CCN(c2ccc(NC(=O)c3ccccc3-c3ccc(C(F)(F)F)cc3)cc2)CC1`, 226 to 228 °C; as for `Cc1ccc(Cn2cc(C(=O)C(=O)O)c3cc(-c4ccc(OC(F)(F)F)cc4)ccc32)cc1`, 192 to 193 °C.
